Laboratory results from ChEMBL document CHEMBL5512671, “Structure-Based Optimization of Novel Sterol 24-C-Methyltransferase Inhibitors for the Treatment of Candida albicans Infections” (J Med Chem, 2024).
In brackets after ≈: the same amount, converted by molar mass.

Tests used:
[1] = tested on: Candida albicans; assay: Antifungal activity against Candida albicans SC5314 assessed as inhibition of fungal growth incubated for 24 hrs by CLSI protocol based broth microdilution method; format: functional
[2] = tested on: Candida albicans; assay: Antifungal activity against Candida albicans SC5314 assessed as inhibition of hyphae growth incubated for 24 hrs by CLSI protocol based broth microdilution method; format: functional
[3] = Cytotoxicity against human BEAS-2B cells incubated for 48 hrs by CCK-8 method; format: toxicity, cell-based
[4] = Hemolytic activity in mouse RBC assessed as hemolysis at 2 to 32 ug/ml incubated for 60 mins by absorbance based analysis relative to control; format: toxicity, cell-based, Erythrocyte; settings: mouse red blood cells, at 2 to 32 µg/mL, dose 2-32 µg/ml, read-out: Activity
[5] = Cytotoxicity against human HUVEC cells incubated for 48 hrs by CCK-8 method; format: toxicity, cell-based

Row | SMILES | MIC80 [1] | MIC50 [2] | EC50 at 48 h [3] | hemolysis at 1 h [4] | EC50 at 48 h [5]
1 | Cc1c(-n2c(-c3ccccc3Cl)cs/c2=N\c2ccccc2)c(=O)n(-c2ccccc2)n1C | > 128 µg/mL | > 128 µg/mL |  |  | 
2 | Cc1c(-n2c(-c3ccc(I)cc3)cs/c2=N\c2ccccc2)c(=O)n(-c2ccccc2)n1C | > 128 µg/mL | > 128 µg/mL |  |  | 
3 | COc1cc(-c2cs/c(=N\c3ccccc3)n2-c2c(C)n(C)n(-c3ccccc3)c2=O)cc(OC)c1OC | > 128 µg/mL | > 128 µg/mL |  |  | 
4 | COc1cccc(-c2cs/c(=N\c3ccccc3)n2-c2c(C)n(C)n(-c3ccccc3)c2=O)c1 | > 128 µg/mL | > 128 µg/mL |  |  | 
5 | Cc1c(-n2c(C3CC3)cs/c2=N\c2ccccc2)c(=O)n(-c2ccccc2)n1C | > 128 µg/mL | > 128 µg/mL |  |  | 
6 | Cc1c(-n2c(C34CC5CC(CC(C5)C3)C4)cs/c2=N\c2ccccc2)c(=O)n(-c2ccccc2)n1C | > 128 µg/mL | > 128 µg/mL |  |  | 
7 | Cc1c(-n2c(-c3ccc(Cl)cc3Cl)cs/c2=N\c2ccccc2)c(=O)n(-c2ccccc2)n1C | > 128 µg/mL | > 128 µg/mL |  |  | 
8 | Cc1c(-n2c(-c3nccs3)cs/c2=N\c2ccccc2)c(=O)n(-c2ccccc2)n1C | > 128 µg/mL | > 128 µg/mL |  |  | 
9 | Cc1c(-n2c(-c3cccc([N+](=O)[O-])c3)cs/c2=N\c2ccccc2)c(=O)n(-c2ccccc2)n1C | > 128 µg/mL | > 128 µg/mL |  |  | 
10 | Cc1c(-n2c(-c3ccncc3)cs/c2=N\c2ccccc2)c(=O)n(-c2ccccc2)n1C | > 128 µg/mL | > 128 µg/mL |  |  | 
11 | Cc1c(-n2c(-c3cccc(N)c3)cs/c2=N\c2ccccc2)c(=O)n(-c2ccccc2)n1C | > 128 µg/mL | > 128 µg/mL |  |  | 
12 | Cc1c(-n2c(-c3cccnc3)cs/c2=N\c2ccccc2)c(=O)n(-c2ccccc2)n1C | > 128 µg/mL | > 128 µg/mL |  |  | 
13 | Cc1c(-n2c(-c3ccc(C#N)cc3)cs/c2=N\c2ccccc2)c(=O)n(-c2ccccc2)n1C | > 128 µg/mL | > 128 µg/mL |  |  | 
14 | Cc1c(-n2c(-c3ccccn3)cs/c2=N\c2ccc(Br)cc2)c(=O)n(-c2ccccc2)n1C | > 128 µg/mL | > 128 µg/mL |  |  | 
15 | Cc1c(-n2c(-c3ccc(O)cc3)cs/c2=N\c2ccccc2)c(=O)n(-c2ccccc2)n1C | > 128 µg/mL | > 128 µg/mL |  |  | 
16 | Cc1c(-n2c(-c3ccc(Br)cc3)cs/c2=N\c2cccnc2)c(=O)n(-c2ccccc2)n1C | > 128 µg/mL | > 128 µg/mL |  |  | 

Row | SMILES | MIC80 [1] | MIC50 [2] | EC50 at 48 h [3] | hemolysis at 1 h [4] | EC50 at 48 h [5]
17 | Cc1c(-n2c(-c3ccc(F)cc3)cs/c2=N\c2ccccc2)c(=O)n(-c2ccccc2)n1C | > 128 µg/mL | > 128 µg/mL |  |  | 
18 | Cc1c(-n2c(-c3ccncc3)cs/c2=N\c2ccc(Br)cc2)c(=O)n(-c2ccccc2)n1C | > 128 µg/mL | > 128 µg/mL |  |  | 
19 | Cc1c(-n2c(-c3cccnc3)cs/c2=N\c2ccc(Br)cc2)c(=O)n(-c2ccccc2)n1C | > 128 µg/mL | > 128 µg/mL |  |  | 
20 | COc1ccc(-c2cs/c(=N\c3ccccc3)n2-c2c(C)n(C)n(-c3ccccc3)c2=O)cc1 | > 128 µg/mL | > 128 µg/mL |  |  | 
21 | Cc1c(-n2c(-c3ccc(O)c(C=O)c3)cs/c2=N\c2ccccc2)c(=O)n(-c2ccccc2)n1C | > 128 µg/mL | > 128 µg/mL |  |  | 
22 | Cc1c(-n2c(C3CCN(C(=O)OC(C)(C)C)CC3)cs/c2=N\c2ccccc2)c(=O)n(-c2ccccc2)n1C | > 128 µg/mL | > 128 µg/mL |  |  | 
23 | Cc1c(-n2c(-c3ccccc3)cs/c2=N\c2ccccc2)c(=O)n(-c2ccccc2)n1C | > 128 µg/mL | > 128 µg/mL |  |  | 
24 | Cc1c(-n2c(-c3ccc(O)c(C=O)c3)cs/c2=N\c2ccc(Br)cc2)c(=O)n(-c2ccccc2)n1C | > 128 µg/mL | > 128 µg/mL |  |  | 
25 | Cc1c(-n2c(-c3cc4ccccc4oc3=O)cs/c2=N\c2ccccc2)c(=O)n(-c2ccccc2)n1C | > 128 µg/mL | > 128 µg/mL |  |  | 
26 | Cc1c(-[n+]2c(-c3ccc(Br)cc3)csc2N(C)c2ccccc2)c(=O)n(-c2ccccc2)n1C.[I-] | > 128 µg/mL | > 128 µg/mL |  |  | 
27 | Cc1c(-n2c(-c3cccc([N+](=O)[O-])c3)cs/c2=N\c2ccc(Br)cc2)c(=O)n(-c2ccccc2)n1C | > 128 µg/mL | > 128 µg/mL |  |  | 
28 | Cc1c(-n2c(-c3ccc(C#N)cc3)cs/c2=N\c2ccc(Br)cc2)c(=O)n(-c2ccccc2)n1C | > 128 µg/mL | > 128 µg/mL |  |  | 
29 | Cc1c(-n2c(-c3cccs3)cs/c2=N\c2ccccc2)c(=O)n(-c2ccccc2)n1C | > 128 µg/mL | > 128 µg/mL |  |  | 
30 | Cc1c(-n2c(-c3ccccn3)cs/c2=N\c2ccccc2)c(=O)n(-c2ccccc2)n1C | > 128 µg/mL | > 128 µg/mL |  |  | 
31 | Cc1c(-n2c(-c3ccc(Cl)cc3Cl)cs/c2=N\c2ccc(Br)cc2)c(=O)n(-c2ccccc2)n1C | > 128 µg/mL | > 128 µg/mL |  |  | 
32 | C=CC(=O)Nc1cccc(-c2cs/c(=N\c3ccccc3)n2-c2c(C)n(C)n(-c3ccccc3)c2=O)c1 | > 128 µg/mL | > 128 µg/mL |  |  | 

Second part, led by results:

Row | MIC80 [1] | MIC50 [2] | SMILES | EC50 at 48 h [3] | hemolysis at 1 h [4] | EC50 at 48 h [5]
33 | > 128 µg/mL | 32 µg/mL (≈ 65.4 µM) | Cc1c(-n2c(-c3ccc4ccccc4c3)cs/c2=N\c2cccnc2)c(=O)n(-c2ccccc2)n1C |  |  | 
34 | > 128 µg/mL | > 128 µg/mL | Cc1c(-n2c(-c3ccc(S(C)(=O)=O)cc3)cs/c2=N\c2ccccc2)c(=O)n(-c2ccccc2)n1C |  |  | 
35 | > 128 µg/mL | > 128 µg/mL | Cc1c(-n2c(-c3ccc(-c4ccccc4)cc3)cs/c2=N\c2ccccc2)c(=O)n(-c2ccccc2)n1C |  |  | 
36 | > 128 µg/mL | 2 µg/mL (≈ 4.18 µM) | Cc1c(-n2c(-c3cc4ccccc4o3)cs/c2=N\c2ccccc2)c(=O)n(-c2ccccc2)n1C |  |  | 
37 | > 128 µg/mL | 4 µg/mL (≈ 7.9 µM) | Cc1c(-n2c(-c3ccc(C(F)(F)F)cc3)cs/c2=N\c2ccccc2)c(=O)n(-c2ccccc2)n1C |  |  | 
38 | > 128 µg/mL | 1 µg/mL (≈ 1.68 µM) | Cc1c(-n2c(-c3ccc(Br)cc3)cs/c2=N\c2ccc(Br)cc2)c(=O)n(-c2ccccc2)n1C | > 50 µg/mL | < 1% | > 50 µg/mL
39 | > 128 µg/mL | 8 µg/mL (≈ 13.7 µM) | Cc1c(-n2c(-c3ccc(Br)cc3)cs/c2=N\c2ccc(C(F)(F)F)cc2)c(=O)n(-c2ccccc2)n1C |  |  | 
40 | > 128 µg/mL | > 128 µg/mL | Cc1c(-n2c(-c3ccc(F)cc3)cs/c2=N\c2ccc(Br)cc2)c(=O)n(-c2ccccc2)n1C |  |  | 
41 | > 128 µg/mL | > 128 µg/mL | Cc1c(-n2c(-c3ccc4ccc5cccc6ccc3c4c56)cs/c2=N\c2ccccc2)c(=O)n(-c2ccccc2)n1C |  |  | 
42 | > 128 µg/mL | > 128 µg/mL | COc1ccc2cc(-c3cs/c(=N\c4ccccc4)n3-c3c(C)n(C)n(-c4ccccc4)c3=O)ccc2c1 |  |  | 
43 | > 128 µg/mL | > 128 µg/mL | Cc1c(-n2c(-c3cccc(F)c3)cs/c2=N\c2ccccc2)c(=O)n(-c2ccccc2)n1C |  |  | 
44 | > 128 µg/mL | > 128 µg/mL | Cc1c(-n2c(-c3ccc4ccccc4c3)cs/c2=N\c2cccc(OCc3ccccc3)c2)c(=O)n(-c2ccccc2)n1C |  |  | 
45 | > 128 µg/mL | > 128 µg/mL | Cc1c(-n2c(-c3ccc(O)cc3)cs/c2=N\c2ccc(Br)cc2)c(=O)n(-c2ccccc2)n1C |  |  | 
46 | > 128 µg/mL | 4 µg/mL (≈ 8.46 µM) | Cc1c(-n2c(-c3ccc(Cl)cc3)cs/c2=N\c2ccccc2)c(=O)n(-c2ccccc2)n1C |  |  | 
47 | > 128 µg/mL | > 128 µg/mL | C#CCOc1ccc(-c2cs/c(=N\c3ccccc3)n2-c2c(C)n(C)n(-c3ccccc3)c2=O)cc1 |  |  | 
48 | > 128 µg/mL | > 128 µg/mL | CC(=O)c1cs/c(=N\c2ccccc2)n1-c1c(C)n(C)n(-c2ccccc2)c1=O |  |  | 
49 | > 128 µg/mL | > 128 µg/mL | Cc1c(-n2c(-c3cccc(Cl)c3)cs/c2=N\c2ccccc2)c(=O)n(-c2ccccc2)n1C |  |  | 
50 | > 128 µg/mL | > 128 µg/mL | Cc1c(-n2c(-c3ccc(C(F)(F)F)cc3)cs/c2=N\c2ccc(Br)cc2)c(=O)n(-c2ccccc2)n1C |  |  | 
51 | > 128 µg/mL | 0.5 µg/mL (≈ 0.928 µM) | Cc1c(-n2c(-c3ccc4ccccc4c3)cs/c2=N\c2cccc3ccccc23)c(=O)n(-c2ccccc2)n1C | > 50 µg/mL | < 1% | > 50 µg/mL
52 | > 128 µg/mL | 4 µg/mL (≈ 7.71 µM) | COc1ccc(/N=c2\scc(-c3ccc4ccccc4c3)n2-c2c(C)n(C)n(-c3ccccc3)c2=O)cc1 |  |  | 
53 | > 128 µg/mL | 16 µg/mL (≈ 29.2 µM) | COc1ccc(/N=c2\scc(-c3ccc(Br)cc3)n2-c2c(C)n(C)n(-c3ccccc3)c2=O)cc1 |  |  | 
54 | > 128 µg/mL | 4 µg/mL (≈ 8.84 µM) | Cc1ccc(-c2cs/c(=N\c3ccccc3)n2-c2c(C)n(C)n(-c3ccccc3)c2=O)cc1 |  |  | 
55 | > 128 µg/mL | 2 µg/mL (≈ 4.15 µM) | Cc1c(-n2c(-c3ccc(N(C)C)cc3)cs/c2=N\c2ccccc2)c(=O)n(-c2ccccc2)n1C | > 50 µg/mL | < 1% | > 50 µg/mL
56 | > 128 µg/mL | 2 µg/mL (≈ 3.52 µM) | Cc1c(-n2c(-c3ccc4ccccc4c3)cs/c2=N\c2ccc(Br)cc2)c(=O)n(-c2ccccc2)n1C | > 50 µg/mL | < 1% | > 50 µg/mL
57 | > 128 µg/mL | 8 µg/mL (≈ 14.5 µM) | Cc1c(-n2c(-c3ccc(Cl)cc3)cs/c2=N\c2ccc(Br)cc2)c(=O)n(-c2ccccc2)n1C |  |  | 
58 | > 128 µg/mL | 2 µg/mL (≈ 3.59 µM) | Cc1c(-n2c(-c3ccc4ccccc4c3)cs/c2=N\c2ccc(C(F)(F)F)cc2)c(=O)n(-c2ccccc2)n1C | > 50 µg/mL | < 1% | > 50 µg/mL
59 | > 128 µg/mL | 1 µg/mL (≈ 1.76 µM) | Cc1c(-n2c(-c3ccc(Br)cc3)cs/c2=N\c2ccc3ccccc3c2)c(=O)n(-c2ccccc2)n1C | > 50 µg/mL | < 1% | > 50 µg/mL
60 | > 128 µg/mL | 8 µg/mL (≈ 15.3 µM) | Cc1c(-n2c(-c3ccc(OC(F)(F)F)cc3)cs/c2=N\c2ccccc2)c(=O)n(-c2ccccc2)n1C |  |  | 
61 | > 128 µg/mL | 0.5 µg/mL (≈ 0.928 µM) | Cc1c(-n2c(-c3ccc4ccccc4c3)cs/c2=N\c2ccc3ccccc3c2)c(=O)n(-c2ccccc2)n1C | > 50 µg/mL | < 1% | > 50 µg/mL
